Reference: US20070082880A1 (priority 2005, published 2007)

target: T1, human PKCθ full length enzyme (Homo sapiens, UniProt Q04759); assay: PKCθ IMAP Assay; type: biochemical; details: average value when one or more samples were tested; ATP 6 uM, PKCθ 1 nM
T1 construct: human PKCθ full length enzyme (Panvera Catalog No. P2996); purchased Panvera P2996
Method in brief: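 IMAP fluorescence polarization after 20 min with binding beads measured phosphorylation of 100 nM 5FAM-peptide. Reactions held 1 nM full-length human PKCθ, 6 uM ATP, 5% DMSO and DTT-containing buffer, 25 min at room temperature. Compounds tested as 2:1 serial dilutions; controls lacked ATP or enzyme.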

T1 sequence (Q04759 whole entry): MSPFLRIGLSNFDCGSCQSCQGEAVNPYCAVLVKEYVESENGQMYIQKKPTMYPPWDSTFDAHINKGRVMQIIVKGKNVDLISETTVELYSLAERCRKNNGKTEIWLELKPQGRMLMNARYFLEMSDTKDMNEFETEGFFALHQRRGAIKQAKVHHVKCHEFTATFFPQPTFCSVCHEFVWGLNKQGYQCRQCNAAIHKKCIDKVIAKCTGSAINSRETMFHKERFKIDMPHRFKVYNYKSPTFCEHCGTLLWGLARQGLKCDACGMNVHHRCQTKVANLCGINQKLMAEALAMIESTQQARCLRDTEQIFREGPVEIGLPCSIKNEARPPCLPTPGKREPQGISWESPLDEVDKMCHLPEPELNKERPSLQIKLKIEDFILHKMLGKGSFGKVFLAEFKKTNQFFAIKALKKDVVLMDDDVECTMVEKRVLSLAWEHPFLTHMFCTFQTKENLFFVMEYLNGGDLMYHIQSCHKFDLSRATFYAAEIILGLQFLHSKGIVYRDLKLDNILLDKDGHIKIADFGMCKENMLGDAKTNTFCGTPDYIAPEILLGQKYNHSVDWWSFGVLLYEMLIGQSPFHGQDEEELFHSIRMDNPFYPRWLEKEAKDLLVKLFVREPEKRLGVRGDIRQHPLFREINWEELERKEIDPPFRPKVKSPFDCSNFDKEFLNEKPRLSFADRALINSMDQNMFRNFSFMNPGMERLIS

Going from `Cc1c(Nc2c(C#N)cnc3sc(-c4ccc(N5CCOCC5)nc4)cc23)ccc2[nH]ccc12` [Compound 329, 4-[(4-methyl-1H-indol-5-yl)amino]-2-(6-morpholin-4-ylpyridin-3-yl)thieno[2,3-b]pyridine-5-carbonitrile] to `Cc1c(Nc2c(C#N)cnc3sc(-c4cnc(N5CCOCC5)nc4)cc23)ccc2[nH]ccc12` [Compound 330, 4-[(4-methyl-1H-indol-5-yl)amino]-2-(2-morpholin-4-ylpyrimidin-5-yl)thieno[2,3-b]pyridine-5-carbonitrile], the IC50 falls from 160 nM to 69 nM (2.3-fold).

Compared with `Cc1c(Nc2c(C#N)cnc3sc(-c4cnc(N(C)C)nc4)cc23)ccc2[nH]ccc12` [Compound 331, 2-[2-(dimethylamino)pyrimidin-5-yl]-4-[(4-methyl-1H-indol-5-yl)amino]thieno[2,3-b]pyridine-5-carbonitrile], `Cc1c(Nc2c(C#N)cnc3sc(-c4ccc(OCCCN(C)C)nc4)cc23)ccc2[nH]ccc12` [Compound 350, 2-{6-[3-(dimethylamino)propoxy]pyridin-3-yl}-4-[(4-methyl-1H-indol-5-yl)amino]thieno[2,3-b]pyridine-5-carbonitrile] is lower in IC50: greater than 25000 nM for the first, 34 nM for the second. The second is the more potent here.

First: CCOc1ccccc1-c1cc2c(Nc3ccc4[nH]ccc4c3C)c(C#N)cnc2s1 [Compound 332, 2-(2-ethoxyphenyl)-4-[(4-methyl-1H-indol-5-yl)amino]thieno[2,3-b]pyridine-5-carbonitrile]
Second: COc1ccccc1-c1cc2c(Nc3ccc4[nH]ccc4c3C)c(C#N)cnc2s1 [Compound 364, 2-(2-methoxyphenyl)-4-[(4-methyl-1H-indol-5-yl)amino]thieno[2,3-b]pyridine-5-carbonitrile]
The IC50 of the first is 20-fold higher: 437 nM for the first, 22 nM for the second. The second is the more potent here.

First: COC(=O)Nc1ccc(-c2cc3c(Nc4ccc5[nH]ccc5c4C)c(C#N)cnc3s2)cc1 [Compound 333, methyl (4-{5-cyano-4-[(4-methyl-1H-indol-5-yl)amino]thieno[2,3-b]pyridin-2-yl}phenyl)carbamate]
Second: CONC(=O)c1ccc(-c2cc3c(Nc4ccc5[nH]ccc5c4C)c(C#N)cnc3s2)cc1 [Compound 358, 4-{5-cyano-4-[(4-methyl-1H-indol-5-yl)amino]thieno[2,3-b]pyridin-2-yl}-N-methoxybenzamide]
The IC50 of the first is 62-fold higher: 616 nM for the first, 10 nM for the second. The second is the more potent here.

Compared with `CCCCNC(=O)Nc1ccc(-c2cc3c(Nc4ccc5[nH]ccc5c4)c(C#N)cnc3s2)cc1` [Compound 334, N-butyl-N′-{4-[5-cyano-4-(1H-indol-5-ylamino)thieno[2,3-b]pyridin-2-yl]phenyl}urea], `COC(=O)Nc1ccc(-c2cc3c(Nc4ccc5[nH]ccc5c4)c(C#N)cnc3s2)cc1` [Compound 342, methyl {4-[5-cyano-4-(1H-indol-5-ylamino)thieno[2,3-b]pyridin-2-yl]phenyl}carbamate] is lower in IC50: greater than 12500 nM for the first, 470 nM for the second.

First: CN(C)CCNC(=O)c1cccc(-c2cc3c(Nc4ccc5[nH]ccc5c4)c(C#N)cnc3s2)c1 [Compound 335, 3-[5-cyano-4-(1H-indol-5-ylamino)thieno[2,3-b]pyridin-2-yl]-N-[2-(dimethylamino)ethyl]benzamide]
Second: CON(C)C(=O)c1cccc(-c2cc3c(Nc4ccc5[nH]ccc5c4)c(C#N)cnc3s2)c1 [Compound 344, 3-[5-cyano-4-(1H-indol-5-ylamino)thieno[2,3-b]pyridin-2-yl]-N-methoxy-N-methylbenzamide]
The IC50 of the first is 6.6-fold lower: 124 nM for the first, 818 nM for the second.

Compared with `N#Cc1cnc2sc(-c3cscc3C=O)cc2c1Nc1ccc2[nH]ccc2c1` [Compound 336, 2-(4-formyl-3-thienyl)-4-(1H-indol-5-ylamino)thieno[2,3-b]pyridine-5-carbonitrile], `COc1ccc(-c2cc3c(Nc4ccc5[nH]ccc5c4)c(C#N)cnc3s2)cc1C=O` [Compound 337, 2-(3-formyl-4-methoxyphenyl)-4-(1H-indol-5-ylamino)thieno[2,3-b]pyridine-5-carbonitrile] is 2.7-fold higher in IC50: 51 nM for the first, 136 nM for the second.

Going from `COc1ccc(C=O)cc1-c1cc2c(Nc3ccc4[nH]ccc4c3C)c(C#N)cnc2s1` [Compound 338, 2-(5-formyl-2-methoxyphenyl)-4-[(4-methyl-1H-indol-5-yl)amino]thieno[2,3-b]pyridine-5-carbonitrile] to `COc1ccc(C)cc1-c1cc2c(Nc3ccc4[nH]ccc4c3C)c(C#N)cnc2s1` [Compound 366, 2-(2-methoxy-5-methylphenyl)-4-[(4-methyl-1H-indol-5-yl)amino]thieno[2,3-b]pyridine-5-carbonitrile], the IC50 rises from 14 nM to 106 nM (7.6-fold). The first is the more potent here.

First: Cc1c(Nc2c(C#N)cnc3sc(-c4cccc(C(=O)NCCN(C)C)c4)cc23)ccc2[nH]ccc12 [Compound 339, 3-{5-cyano-4-[(4-methyl-1H-indol-5-yl)amino]thieno[2,3-b]pyridin-2-yl}-N-[2-(dimethylamino)ethyl]benzamide]
Second: Cc1c(Nc2c(C#N)cnc3sc(-c4ccc(C(=O)NCCN(C)C)cc4)cc23)ccc2[nH]ccc12 [Compound 349, 4-{5-cyano-4-[(4-methyl-1H-indol-5-yl)amino]thieno[2,3-b]pyridin-2-yl}-N-[2-(dimethylamino)ethyl]benzamide]
The IC50 of the first is 1.8-fold lower: 9 nM for the first, 16 nM for the second. The first is the more potent here.

`CC(=O)c1cccc(-c2cc3c(Nc4ccc5[nH]ccc5c4C)c(C#N)cnc3s2)c1` [Compound 340, 2-(3-acetylphenyl)-4-[(4-methyl-1H-indol-5-yl)amino]thieno[2,3-b]pyridine-5-carbonitrile] and `Cc1c(Nc2c(C#N)cnc3sc(-c4cccc(C(=O)N(C)C)c4)cc23)ccc2[nH]ccc12` [Compound 353, 3-{5-cyano-4-[(4-methyl-1H-indol-5-yl)amino]thieno[2,3-b]pyridin-2-yl}-N,N-dimethylbenzamide] are within 1.5-fold of each other in IC50: 26 nM for the first, 36 nM for the second.

`CNS(=O)(=O)c1cccc(-c2cc3c(Nc4ccc5[nH]ccc5c4C)c(C#N)cnc3s2)c1` [Compound 343, 3-{5-cyano-4-[(4-methyl-1H-indol-5-yl)amino]thieno[2,3-b]pyridin-2-yl}-N-methylbenzenesulfonamide] and `Cc1c(Nc2c(C#N)cnc3sc(-c4cccc(NS(C)(=O)=O)c4)cc23)ccc2[nH]ccc12` [Compound 360, N-(3-{5-cyano-4-[(4-methyl-1H-indol-5-yl)amino]thieno[2,3-b]pyridin-2-yl}phenyl)methanesulfonamide] are within 1.5-fold of each other in IC50: 30 nM for the first, 23 nM for the second.

Going from `Cc1c(Nc2c(C#N)cnc3sc(-c4ccc(S(=O)(=O)NCCN(C)C)cc4)cc23)ccc2[nH]ccc12` [Compound 345, 4-{5-cyano-4-[(4-methyl-1H-indol-5-yl)amino]thieno[2,3-b]pyridin-2-yl}-N-[2-(dimethylamino)ethyl]benzenesulfonamide] to `Cc1c(Nc2c(C#N)cnc3sc(-c4ccc(S(=O)(=O)N(C)CCN(C)C)cc4)cc23)ccc2[nH]ccc12` [Compound 346, 4-{5-cyano-4-[(4-methyl-1H-indol-5-yl)amino]thieno[2,3-b]pyridin-2-yl}-N-[2-(dimethylamino)ethyl]-N-methylbenzenesulfonamide], the IC50 rises from 31 nM to 48 nM (1.5-fold).

`Cc1c(Nc2c(C#N)cnc3sc(-c4cccc(C(C)N(C)C)c4)cc23)ccc2[nH]ccc12` (centres unmarked) [Compound 347, 2-{3-[1-(dimethylamino)ethyl]phenyl}-4-[(4-methyl-1H-indol-5-yl)amino]thieno[2,3-b]pyridine-5-carbonitrile] and `CON(C)C(=O)c1cccc(-c2cc3c(Nc4ccc5[nH]ccc5c4C)c(C#N)cnc3s2)c1` [Compound 354, 3-{5-cyano-4-[(4-methyl-1H-indol-5-yl)amino]thieno[2,3-b]pyridin-2-yl}-N-methoxy-N-methylbenzamide] are within 1.5-fold of each other in IC50: 13 nM for the first, 18 nM for the second.

Going from `Cc1c(Nc2c(C#N)cnc3sc(-c4cccc(C(=O)N(C)CCN(C)C)c4)cc23)ccc2[nH]ccc12` [Compound 348, 3-{5-cyano-4-[(4-methyl-1H-indol-5-yl)amino]thieno[2,3-b]pyridin-2-yl}-N-[2-(dimethylamino)ethyl]-N-methylbenzamide] to `CON(C)C(=O)c1ccc(-c2cc3c(Nc4ccc5[nH]ccc5c4C)c(C#N)cnc3s2)cc1` [Compound 357, 4-{5-cyano-4-[(4-methyl-1H-indol-5-yl)amino]thieno[2,3-b]pyridin-2-yl}-N-methoxy-N-methylbenzamide], the IC50 rises from 18 nM to 48 nM (2.7-fold). The first is the more potent here.

Going from `Cc1c(Nc2c(C#N)cnc3sc(-c4ccc(OCCCl)cc4)cc23)ccc2[nH]ccc12` [Compound 351, 2-[4-(2-chloroethoxy)phenyl]-4-[(4-methyl-1H-indol-5-yl)amino]thieno[2,3-b]pyridine-5-carbonitrile] to `Cc1c(Nc2c(C#N)cnc3sc(-c4ccc(NS(C)(=O)=O)cc4)cc23)ccc2[nH]ccc12` [Compound 361, N-(4-{5-cyano-4-[(4-methyl-1H-indol-5-yl)amino]thieno[2,3-b]pyridin-2-yl}phenyl)methanesulfonamide], the IC50 falls from 120 nM to 43 nM (2.8-fold). The second is the more potent here.

Going from `Cc1c(Nc2c(C#N)cnc3sc(-c4ccc(NCCN5CCOCC5)nc4)cc23)ccc2[nH]ccc12` [Compound 352, 4-[(4-methyl-1H-indol-5-yl)amino]-2-{6-[(2-morpholin-4-ylethyl)amino]pyridin-3-yl}thieno[2,3-b]pyridine-5-carbonitrile] to `Cc1c(Nc2c(C#N)cnc3sc(-c4ccc5ccccc5c4)cc23)ccc2[nH]ccc12` [Compound 362, 4-[(4-methyl-1H-indol-5-yl)amino]-2-(2-naphthyl)thieno[2,3-b]pyridine-5-carbonitrile], the IC50 rises from 23 nM to 72 nM (3.1-fold). The first is the more potent here.

Going from `CS(=O)(=O)Nc1cccc(-c2cc3c(Nc4ccc5[nH]ccc5c4)c(C#N)cnc3s2)c1` [Compound 359, N-{3-[5-cyano-4-(1H-indol-5-ylamino)thieno[2,3-b]pyridin-2-yl]phenyl}methanesulfonamide] to `Cc1c(Nc2c(C#N)cnc3sc(-c4cccc5ccccc45)cc23)ccc2[nH]ccc12` [Compound 363, 4-[(4-methyl-1H-indol-5-yl)amino]-2-(1-naphthyl)thieno[2,3-b]pyridine-5-carbonitrile], the IC50 rises from 245 nM to 401 nM (1.6-fold).

Compound `Cc1c(Nc2c(C#N)cnc3sc(-c4cc(C=O)cc(OC(C)C)c4)cc23)ccc2[nH]ccc12` [Compound 365, 2-(3-formyl-5-isopropoxyphenyl)-4-[(4-methyl-1H-indol-5-yl)amino]thieno[2,3-b]pyridine-5-carbonitrile] has an IC50 of 103 nM.
